What was measured:
Assay type in all cases: cell-based
human TLR8 = target: T1, human TLR8 (Homo sapiens, UniProt Q9NR97); assay: TLR8 inhibition reporter assay (HEK-Blue, SEAP); conditions: HEK-Blue cells overexpressing human TLR8, ligand R848 14.25 μM, 22 hour incubation
T1 construct: host or cells: HEK-Blue cells
T1 sequence (Q9NR97 27-1041): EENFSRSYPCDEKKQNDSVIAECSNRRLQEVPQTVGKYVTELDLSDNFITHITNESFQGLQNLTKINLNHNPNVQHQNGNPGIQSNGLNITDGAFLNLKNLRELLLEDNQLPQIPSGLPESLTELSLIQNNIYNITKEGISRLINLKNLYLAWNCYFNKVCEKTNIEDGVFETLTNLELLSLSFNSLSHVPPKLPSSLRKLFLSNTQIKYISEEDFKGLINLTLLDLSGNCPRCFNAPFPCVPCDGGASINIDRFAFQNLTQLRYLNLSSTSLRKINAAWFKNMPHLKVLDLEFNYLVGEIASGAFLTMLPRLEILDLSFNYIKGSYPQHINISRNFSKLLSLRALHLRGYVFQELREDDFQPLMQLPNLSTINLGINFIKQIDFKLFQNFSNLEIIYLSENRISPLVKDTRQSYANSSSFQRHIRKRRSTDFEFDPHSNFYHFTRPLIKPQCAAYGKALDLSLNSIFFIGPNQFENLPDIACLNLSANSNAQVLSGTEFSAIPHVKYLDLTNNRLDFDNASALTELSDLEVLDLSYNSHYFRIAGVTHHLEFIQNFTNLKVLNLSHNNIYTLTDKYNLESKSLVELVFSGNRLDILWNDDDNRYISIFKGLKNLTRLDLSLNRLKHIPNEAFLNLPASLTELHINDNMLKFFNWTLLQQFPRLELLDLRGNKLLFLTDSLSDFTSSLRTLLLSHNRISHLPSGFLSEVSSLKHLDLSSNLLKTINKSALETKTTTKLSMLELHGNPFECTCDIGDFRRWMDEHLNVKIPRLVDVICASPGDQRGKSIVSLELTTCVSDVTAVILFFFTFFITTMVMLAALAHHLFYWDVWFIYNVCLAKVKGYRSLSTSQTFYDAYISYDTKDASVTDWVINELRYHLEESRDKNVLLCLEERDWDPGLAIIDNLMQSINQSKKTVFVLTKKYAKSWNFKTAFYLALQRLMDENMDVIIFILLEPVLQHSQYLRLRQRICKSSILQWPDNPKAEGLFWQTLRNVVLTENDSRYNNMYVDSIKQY
Method: (§1) TLR7/8/9 Inhibition Reporter Assays
(§2) HEK-Blue™-cells (Invivogen) overexpressing human TLR7. TLR8 or TLR9 receptors were used for screening inhibitors of these receptors using an inducible SEAP (secreted embryonic alkaline phosphatase) reporter gene under the control of the IFN-β minimal promoter fused to five NF-κB and AP-1-binding sites. Cells are seeded into Greiner 384 well plates (15000 cells per well) that are pre dispensed (by ECHO) with testing compounds in DMSO to yield a final dose response concentration range of 0.85 nM-50 μM. After a 60 minute compound pre-treatment in 37 degree incubator, the cells are then stimulated with a TLR7 ligand (gardiquimod at a final concentration of 2.5 μM), TLR8 ligand (R848 at a final concentration of 14.25 μM) or TLR9 ligand (ODN2006 at a final concentration of 200 nM) to activate NF-κB and AP-1 which induce the production of SEAP. After a 22 hour incubation at 37° C., 5% CO2, SEAP levels are determined with the addition of HEK-Blue™ Detection reagent (Invivogen), a cell culture medium that allows for detection of SEAP, according to manufacturer's specifications. The percent inhibition is determined as the % reduction in the HEK-Blue signal present in […].

human TLR7 = target: T2, human TLR7 (Homo sapiens, UniProt Q9NYK1); assay: TLR7 inhibition reporter assay (HEK-Blue, SEAP); conditions: HEK-Blue cells overexpressing human TLR7, ligand gardiquimod 2.5 μM, 22 hour incubation
T2 construct: host or cells: HEK-Blue cells
T2 sequence (Q9NYK1 27-1049): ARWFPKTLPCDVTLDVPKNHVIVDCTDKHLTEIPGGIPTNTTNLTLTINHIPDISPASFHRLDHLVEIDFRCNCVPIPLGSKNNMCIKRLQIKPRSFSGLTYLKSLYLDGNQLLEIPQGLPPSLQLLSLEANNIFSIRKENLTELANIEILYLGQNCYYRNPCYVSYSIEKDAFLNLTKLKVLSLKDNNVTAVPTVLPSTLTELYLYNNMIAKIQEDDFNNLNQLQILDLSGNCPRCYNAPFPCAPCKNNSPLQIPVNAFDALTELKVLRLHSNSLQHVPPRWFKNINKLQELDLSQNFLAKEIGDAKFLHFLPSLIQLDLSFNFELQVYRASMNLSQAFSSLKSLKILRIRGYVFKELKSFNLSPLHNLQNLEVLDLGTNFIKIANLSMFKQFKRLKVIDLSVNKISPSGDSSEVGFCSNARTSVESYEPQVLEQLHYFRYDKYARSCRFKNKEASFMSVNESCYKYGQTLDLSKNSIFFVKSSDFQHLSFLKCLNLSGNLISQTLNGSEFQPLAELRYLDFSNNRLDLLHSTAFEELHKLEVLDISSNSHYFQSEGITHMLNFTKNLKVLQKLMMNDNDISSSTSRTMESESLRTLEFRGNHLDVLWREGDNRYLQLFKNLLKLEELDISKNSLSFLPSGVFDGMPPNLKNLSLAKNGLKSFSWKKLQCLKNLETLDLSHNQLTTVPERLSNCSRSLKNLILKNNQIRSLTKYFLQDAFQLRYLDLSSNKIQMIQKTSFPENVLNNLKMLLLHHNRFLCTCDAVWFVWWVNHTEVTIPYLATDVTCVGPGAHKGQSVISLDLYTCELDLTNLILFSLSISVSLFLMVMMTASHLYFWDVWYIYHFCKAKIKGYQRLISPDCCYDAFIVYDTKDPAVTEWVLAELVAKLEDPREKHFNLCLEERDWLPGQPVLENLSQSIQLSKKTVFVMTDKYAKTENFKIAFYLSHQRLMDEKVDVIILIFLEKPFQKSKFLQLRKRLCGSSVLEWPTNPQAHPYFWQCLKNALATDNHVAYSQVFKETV
Method: as §1, §2

human TLR9 = target: T3, human TLR9 (Homo sapiens, UniProt Q9NR96); assay: TLR9 inhibition reporter assay (HEK-Blue, SEAP); conditions: HEK-Blue cells overexpressing human TLR9, ligand ODN2006 200 nM, 22 hour incubation
T3 construct: host or cells: HEK-Blue cells
T3 sequence (Q9NR96 26-1032): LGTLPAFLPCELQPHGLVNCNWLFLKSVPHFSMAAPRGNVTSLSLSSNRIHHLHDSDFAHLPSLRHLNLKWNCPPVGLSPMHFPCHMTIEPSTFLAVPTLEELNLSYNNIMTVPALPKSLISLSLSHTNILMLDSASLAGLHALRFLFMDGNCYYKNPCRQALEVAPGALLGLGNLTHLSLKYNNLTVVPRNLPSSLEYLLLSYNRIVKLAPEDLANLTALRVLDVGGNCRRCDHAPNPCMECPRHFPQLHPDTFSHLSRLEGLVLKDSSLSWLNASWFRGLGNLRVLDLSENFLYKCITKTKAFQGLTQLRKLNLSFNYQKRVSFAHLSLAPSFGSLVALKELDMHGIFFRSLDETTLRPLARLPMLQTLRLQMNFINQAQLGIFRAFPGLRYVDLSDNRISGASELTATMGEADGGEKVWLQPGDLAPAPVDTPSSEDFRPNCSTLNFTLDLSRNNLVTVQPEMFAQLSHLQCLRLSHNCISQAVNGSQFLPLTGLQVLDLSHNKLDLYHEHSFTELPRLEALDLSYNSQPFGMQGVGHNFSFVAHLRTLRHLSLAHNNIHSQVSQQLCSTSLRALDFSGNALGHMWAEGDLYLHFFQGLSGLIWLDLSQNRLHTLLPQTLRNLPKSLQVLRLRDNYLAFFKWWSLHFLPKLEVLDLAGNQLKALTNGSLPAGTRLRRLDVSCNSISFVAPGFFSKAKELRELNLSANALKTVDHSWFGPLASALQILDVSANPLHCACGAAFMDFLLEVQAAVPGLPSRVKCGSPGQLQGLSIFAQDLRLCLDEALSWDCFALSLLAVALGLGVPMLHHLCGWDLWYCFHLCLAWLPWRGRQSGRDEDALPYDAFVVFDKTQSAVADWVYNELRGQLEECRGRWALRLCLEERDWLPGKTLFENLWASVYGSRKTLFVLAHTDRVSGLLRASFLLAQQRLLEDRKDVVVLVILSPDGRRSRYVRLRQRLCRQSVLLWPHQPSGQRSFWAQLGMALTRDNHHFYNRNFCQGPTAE
Method: as §1, §2

Structure (SMILES)	IC50 (human TLR8)	IC50 (human TLR7)	IC50 (human TLR9)
CC(C)N1CC2(CCN(c3ccc(-c4ccc5nc(-c6ccc(S(C)(=O)=O)cc6)n(C)c5n4)cc3)CC2)C1 [Example 61, 5-(4-(2-isopropyl-2,7-diazaspiro[3.5]nonan-7-yl)phenyl)-3-methyl-2-(4-(methylsulfonyl)phenyl)-3H-imidazo[4,5-b]pyridine]	18 µM	16 µM	0.56 µM
Cc1cc(C2CCN(C3CCN(CC(C)(C)O)CC3)CC2)nc2c1nc(-c1ccc(S(C)(=O)=O)cc1)n2C [Example 22, 1-(4-(3,7-dimethyl-2-(4-(methylsulfonyl)phenyl)-3H-imidazo[4,5-b]pyridin-5-yl)-[1,4′-bipiperidin]-1′-yl)-2-methylpropan-2-ol]	> 25 µM	1.3 µM	0.026 µM
Cc1cc(-c2ccc(CN3CC4(C3)CN(C3COC3)C4)cc2)nc2c1nc(-c1ccc(S(C)(=O)=O)cc1)n2C1CC1 [Example 6, 3-cyclopropyl-7-methyl-2-(4-(methylsulfonyl)phenyl)-5-(4-((6-(oxetan-3-yl)-2,6-diazaspiro[3.3]heptan-2-yl)methyl)phenyl)-3H-imidazo[4,5-b]pyridine]	–	15 µM	0.73 µM
COc1ccc(-c2nc3c(C)cc(-c4ccc(N5CC6(CN(CC(C)C)C6)C5)cc4)nc3n2C)cc1OC [Example 64, 2-(3,4-dimethoxyphenyl)-5-(4-(6-isobutyl-2,6-diazaspiro[3.3]heptan-2-yl)phenyl)-3,7-dimethyl-3H-imidazo[4,5-b]pyridine]	9.8 µM	6.3 µM	1.4 µM
Cc1cc(C2CCN(C3CCN(CC4CC4)CC3)CC2)nc2c1nc(-c1ccc(S(C)(=O)=O)cc1)n2C [Example 23, 5-(1′-(cyclopropylmethyl)-[1,4′-bipiperidin]-4-yl)-3,7-dimethyl-2-(4-(methylsulfonyl)phenyl)-3H-imidazo[4,5-b]pyridine]	> 50 µM	1.9 µM	0.061 µM
Cc1cc(C2CCN(C3CC4CCC(C3)N4CC(C)C)CC2)nc2c1nc(-c1ccc(S(C)(=O)=O)cc1)n2C (single isomer, unassigned) [Example 29, 5-(1-(8-isobutyl-8-azabicyclo[3.2.1]octan-3-yl)piperidin-4-yl)-3,7-dimethyl-2-(4-(methylsulfonyl)phenyl)-3H-imidazo[4,5-b]pyridine]	–	–	0.55 µM
COc1ccc(-c2nc3ncc(C4CCN(C5CCN(CC(C)C)CC5)CC4)cc3[nH]2)cc1OC [Example 12, 2-(3,4-dimethoxyphenyl)-6-(1′-isobutyl-[1,4′-bipiperidin]-4-yl)-1H-imidazo[4,5-b]pyridine]	–	–	0.074 µM
CS(=O)(=O)c1ccc(-c2nc3ccc(-c4ccc(N5CCN(CCCN6CCOCC6)CC5)cc4)nc3n2C2CC2)cc1 [Example 56, 4-(3-(4-(4-(3-cyclopropyl-2-(4-(methylsulfonyl)phenyl)-3H-imidazo[4,5-b]pyridin-5-yl)phenyl)piperazin-1-yl)propyl) morpholine]	–	> 50 µM	0.28 µM
Cc1cc(-c2ccc(CN3CC4(C3)CN(CC(C)C)C4)cc2)nc2c1nc(-c1ccc(S(C)(=O)=O)cc1)n2C1CC1 [Example 4, 3-cyclopropyl-5-(4-((6-isobutyl-2,6-diazaspiro[3.3]heptan-2-yl)methyl)phenyl)-7-methyl-2-(4-(methylsulfonyl)phenyl)-3H-imidazo[4,5-b]pyridine]	–	2.6 µM	0.071 µM
COc1ccc(-c2nc3ncc(-c4ccc(N5CCN(C(C)C)CC5)cc4)cc3n2C2CC2)cc1OC [Example 50, 1-cyclopropyl-2-(3,4-dimethoxyphenyl)-6-(4-(4-isopropylpiperazin-1-yl)phenyl)-1H-imidazo[4,5-b]pyridine]	3.4 µM	–	0.32 µM
COc1ccc(-c2nc3c(C)cc(-c4ccc(N5CC6(C5)CN(C(C)C)C6)cc4)nc3n2C)cc1OC [Example 59, 2-(3,4-dimethoxyphenyl)-5-(4-(6-isopropyl-2,6-diazaspiro[3.3]heptan-2-yl)phenyl)-3,7-dimethyl-3H-imidazo[4,5-b]pyridine]	–	1.1 µM	0.86 µM
COc1cc(-c2nc3c(C)cc(-c4ccc(N5CCN(C(C)C)CC5)cc4)nc3n2C)cn2ncnc12 [Example 45, 5-(4-(4-isopropylpiperazin-1-yl)phenyl)-2-(8-methoxy-[1,2,4]triazolo[1,5-a]pyridin-6-yl)-3,7-dimethyl-3H-imidazo[4,5-b]pyridine]	–	5.8 µM	0.14 µM

— patent US20250177363A1, “SUBSTITUTED IMIDAZOPYRIDINYL COMPOUNDS USEFUL AS INHIBITORS OF TLR9” (Bristol-Myers Squibb Company, priority 2022, published 2025)
